Target: T1, human P2X4 (Homo sapiens, UniProt Q99571)
T1 construct: expressed in transfected cells
T1 sequence (Q99571 1-388): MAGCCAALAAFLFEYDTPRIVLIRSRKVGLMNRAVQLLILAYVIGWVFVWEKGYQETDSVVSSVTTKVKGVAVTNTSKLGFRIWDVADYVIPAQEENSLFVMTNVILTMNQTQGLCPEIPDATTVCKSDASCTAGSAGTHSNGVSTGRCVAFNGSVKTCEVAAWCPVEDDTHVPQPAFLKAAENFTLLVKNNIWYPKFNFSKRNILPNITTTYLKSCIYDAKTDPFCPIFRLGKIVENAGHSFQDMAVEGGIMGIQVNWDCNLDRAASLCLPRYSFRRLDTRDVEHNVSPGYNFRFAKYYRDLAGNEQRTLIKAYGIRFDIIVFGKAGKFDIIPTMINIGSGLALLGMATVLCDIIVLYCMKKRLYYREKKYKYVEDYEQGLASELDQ
Assay: Human P2X4 HEK Cell FLIPR Assay
Format: cell-based
Conditions: HEK293 stably expressing human P2X4, agonist Bz-ATP 3 μM (EC80); for IC50: read-out: Human P2X4 HEK Cells (FLIPR Assay) avg IC50
How it was run: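 HEK293 cells stably expressing human P2X4 were loaded with Fluo8-AM (30 min, 37 °C, HBSS/HEPES pH 7.4 with probenecid), then preincubated 30 min at room temperature with compound, 25 μM–1 nM final, 0.5% DMSO. Bz-ATP-evoked calcium fluorescence was read on FLIPR; data were normalized to agonist control and given a four-parameter fit for IC50.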

Human P2X4 HEK Cells (FLIPR Assay) avg Efficacy | IC50 | Structure (SMILES)
101% | 479 nM | COc1cc(F)cc(N(C(C)=O)c2cc(NC(=O)Cc3ccccc3Cl)ccn2)c1 [Example 161, N-{4-[2-(2-Chlorphenyl)acetamido]pyridin-2-yl}-N-(3-fluor-5-methoxyphenyl)acetamide]
104% | 577 nM | COc1cc(F)cc(N(C(C)=O)c2cc(NC(=O)Cc3c(Cl)cccc3Cl)ccn2)c1 [Example 162, N-{4-[2-(2,6-Dichlorphenyl)acetamido]pyridin-2-yl}-N-(3-fluor-5-methoxyphenyl)acetamide]
100% | 665 nM | COc1cc(F)cc(N(C(C)=O)c2cc(NC(=O)Cc3ccc(F)cc3Cl)ccn2)c1 [Example 163, N-{4-[2-(2-Chlor-4-fluorphenyl)acetamido]pyridin-2-yl}-N-(3-fluor-5-methoxyphenyl)acetamide]
100% | 683 nM | COc1cc(F)cc(N(C(C)=O)c2cc(NC(=O)Cc3c(F)cccc3Cl)ccn2)c1 [Example 164, N-{4-[2-(2-Chlor-6-fluorphenyl)acetamido]pyridin-2-yl}-N-(3-fluor-5-methoxyphenyl)acetamide]
99% | 402 nM | CC(=O)N(c1cc(NC(=O)Cc2c(Cl)cccc2Cl)ccn1)c1ccccc1C(F)F [Example 165, N-{4-[2-(2,6-Dichlorphenyl)acetamido]pyridin-2-yl}-N-[2-(difluormethyl)phenyl]acetamide]
97% | 663 nM | CC(=O)N(c1cc(NC(=O)Cc2ccccc2Cl)ccn1)c1ccccc1C(F)F [Example 166, N-{4-[2-(2-Chlorphenyl)acetamido]pyridin-2-yl}-N-[2-(difluormethyl)phenyl]acetamide]
100% | 677 nM | CC(=O)N(c1cc(NC(=O)Cc2cccc(F)c2Cl)ccn1)c1ccccc1C(F)F [Example 167, N-{4-[2-(2-Chlor-3-fluorphenyl)acetamido]pyridin-2-yl}-N-[2-(difluormethyl)phenyl]acetamide]
99% | 761 nM | CC(=O)N(c1cc(NC(=O)Cc2c(F)cccc2Cl)ccn1)c1ccccc1C(F)F [Example 168, N-{4-[2-(2-Chlor-6-fluorphenyl)acetamido]pyridin-2-yl}-N-[2-(difluormethyl)phenyl]acetamide]
101% | 813 nM | CC(=O)N(c1cc(NC(=O)Cc2ccc(F)cc2Cl)ccn1)c1ccccc1C(F)F [Example 169, N-{4-[2-(2-Chlor-4-fluorphenyl)acetamido]pyridin-2-yl}-N-[2-(difluormethyl)phenyl]acetamide]
104% | 468 nM | CC(=O)N(c1cc(NC(=O)Cc2ccccc2Cl)ccn1)c1ccc(C)cc1C [Example 170, N-{4-[2-(2-Chlorphenyl)acetamido]pyridin-2-yl}-N-(2,4-dimethylphenyl)acetamide]
103% | 511 nM | CC(=O)N(c1cc(NC(=O)Cc2cccc(F)c2Cl)ccn1)c1ccc(C)cc1C [Example 171, N-{4-[2-(2-Chlor-3-fluorphenyl)acetamido]pyridin-2-yl}-N-(2,4-dimethylphenyl)acetamide]
104% | 520 nM | CC(=O)N(c1cc(NC(=O)Cc2c(F)cccc2Cl)ccn1)c1ccc(C)cc1C [Example 172, N-{4-[2-(2-Chlor-6-fluorphenyl)acetamido]pyridin-2-yl}-N-(2,4-dimethylphenyl)acetamide]
104% | 526 nM | CC(=O)N(c1cc(NC(=O)Cc2c(Cl)cccc2Cl)ccn1)c1ccc(C)cc1C [Example 173, N-{4-[2-(2,6-Dichlorphenyl)acetamido]pyridin-2-yl}-N-(2,4-dimethylphenyl)acetamide]
103% | 528 nM | CC(=O)N(c1cc(NC(=O)Cc2ccc(F)cc2Cl)ccn1)c1ccc(C)cc1C [Example 174, N-{4-[2-(2-Chlor-4-fluorphenyl)acetamido]pyridin-2-yl}-N-(2,4-dimethylphenyl)acetamide]
97% | 516 nM | CC(=O)N(c1cc(C)cc(C#N)c1)c1cc(NC(=O)Cc2ccccc2Cl)ccn1 [Example 175, N-{4-[2-(2-Chlorphenyl)acetamido]pyridin-2-yl}-N-(3-cyan-5-methylphenyl)acetamide]
101% | 567 nM | CC(=O)N(c1cc(C)cc(C#N)c1)c1cc(NC(=O)Cc2c(Cl)cccc2Cl)ccn1 [Example 176, N-(3-Cyan-5-methylphenyl)-N-{4-[2-(2,6-dichlorphenyl)acetamido]pyridin-2-yl}acetamide]

Human P2X4 HEK Cells (FLIPR Assay) avg Efficacy | IC50 | Structure (SMILES)
96% | 578 nM | CC(=O)N(c1cc(C)cc(C#N)c1)c1cc(NC(=O)Cc2cccc(F)c2Cl)ccn1 [Example 177, N-{4-[2-(2-Chlor-3-fluorphenyl)acetamido]pyridin-2-yl}-N-(3-cyan-5-methylphenyl)acetamide]
99% | 621 nM | CC(=O)N(c1cc(C)cc(C#N)c1)c1cc(NC(=O)Cc2ccc(F)cc2Cl)ccn1 [Example 178, N-{4-[2-(2-Chlor-4-fluorphenyl)acetamido]pyridin-2-yl}-N-(3-cyan-5-methylphenyl)acetamide]
98% | 673 nM | CC(=O)N(c1cc(C)cc(C#N)c1)c1cc(NC(=O)Cc2c(F)cccc2Cl)ccn1 [Example 179, N-{4-[2-(2-Chlor-6-fluorphenyl)acetamido]pyridin-2-yl}-N-(3-cyan-5-methylphenyl)acetamide]
101% | 569 nM | CC(=O)N(c1ccc(C)c(Cl)c1)c1cc(NC(=O)Cc2ccccc2Cl)ccn1 [Example 180, N-(3-Chlor-4-methylphenyl)-N-{4-[2-(2-chlorphenyl)acetamido]pyridin-2-yl}acetamide]
101% | 574 nM | CC(=O)N(c1ccc(C)c(Cl)c1)c1cc(NC(=O)Cc2cccc(F)c2Cl)ccn1 [Example 181, N-{4-[2-(2-Chlor-3-fluorphenyl)acetamido]pyridin-2-yl}-N-(3-chlor-4-methylphenyl)acetamide]
102% | 593 nM | CC(=O)N(c1ccc(C)c(Cl)c1)c1cc(NC(=O)Cc2c(Cl)cccc2Cl)ccn1 [Example 182, N-(3-Chlor-4-methylphenyl)-N-{4-[2-(2,6-dichlorphenyl)acetamido]pyridin-2-yl}acetamide]
101% | 599 nM | CC(=O)N(c1ccc(C)c(Cl)c1)c1cc(NC(=O)Cc2c(F)cccc2Cl)ccn1 [Example 183, N-{4-[2-(2-Chlor-6-fluorphenyl)acetamido]pyridin-2-yl}-N-(3-chlor-4-methylphenyl)acetamide]
104% | 893 nM | CC(=O)N(c1cc(NC(=O)Cc2c(F)cccc2Cl)ccn1)c1ccc(F)c(C)c1C [Example 184, N-{4-[2-(2-Chlor-6-fluorphenyl)acetamido]pyridin-2-yl}-N-(4-fluor-2,3-dimethylphenyl)acetamide]
101% | 438 nM | CC(=O)N(c1ccccc1)c1cc(NC(=O)Cc2c(Cl)cccc2Cl)cnn1 [Example 185, N-{5-[2-(2,6-dichlorophenyl)acetamido]pyridazin-3-yl}-N-phenylacetamide]
99% | 655 nM | CC(=O)N(c1ccccc1)c1cc(NC(=O)Cc2cccc(F)c2Cl)cnn1 [Example 186, N-{5-[2-(2-chloro-3-fluorophenyl)acetamido]pyridazin-3-yl}-N-phenylacetamide]
100% | 700 nM | CC(=O)N(c1ccccc1)c1cc(NC(=O)Cc2ccccc2Cl)cnn1 [Example 187, N-{5-[2-(2-chlorophenyl)acetamido]pyridazin-3-yl}-N-phenylacetamide]
98% | 829 nM | CC(=O)N(c1ccccc1)c1cc(NC(=O)Cc2ccc(F)cc2Cl)cnn1 [Example 188, N-{5-[2-(2-chloro-4-fluorophenyl)acetamido]pyridazin-3-yl}-N-phenylacetamide]
93% | 654 nM | CC(=O)N(c1ccc(F)cc1)c1cc(NC(=O)Cc2c(F)cccc2Cl)cnn1 [Example 189, N-{5-[2-(2-chloro-6-fluorophenyl)acetamido]pyridazin-3-yl}-N-(4-fluorophenyl)acetamide]
95% | 716 nM | CC(=O)N(c1ccc(F)cc1)c1cc(NC(=O)Cc2ccc(F)cc2Cl)cnn1 [Example 190, N-{5-[2-(2-chloro-4-fluorophenyl)acetamido]pyridazin-3-yl}-N-(4-fluorophenyl)acetamide]
92% | 739 nM | CC(=O)N(c1ccc(F)cc1)c1cc(NC(=O)Cc2cccc(F)c2Cl)cnn1 [Example 191, N-{5-[2-(2-chloro-3-fluorophenyl)acetamido]pyridazin-3-yl}-N-(4-fluorophenyl)acetamide]

From US20230257351A1, “SUBSTITUTED N-[…] HAVING P2X4 RECEPTOR ANTAGONISTIC ACTIVITY” (Bayer Aktiengesellschaft, priority 2020, published 2023)
